≈ marks a conversion by molar mass, not a printed value. No end group written: not given here.
Assays:
[1] = system: Acinetobacter baumannii 19,606; type: cell-based; details: 19,606, 24 h
Method: (§2) MBC were determined by extending the MIC procedure in sterilized 96-well polypropylene microtiter plates according to the broth microdilution guidelines of the Clinical and Laboratory Standards Institute with some modification[47]. […] In addition, 10 µL was drawn from each well with no visible turbidity onto LB agar plates and incubated for 24 h at 37 °C. The lowest concentration showing no visible growth on agar subculture was used as the MBC value. All experiments were performed in triplicate.

MDRAB strain BF50 = type: cell-based, Acinetobacter baumannii; details: 24 h
Method: (§1) All AMPs and TP4 derivatives used in this study were synthesized by Kelowna International Scientific Inc. (Taipei City, Taiwan) with more than 95% purity, and their molecular weights were verified by mass spectrum analysis. MBC were determined by extending the MIC procedure in sterilized 96-well polypropylene microtiter plates according to the broth microdilution guidelines of the Clinical and Laboratory Standards Institute with some modification. Briefly, 5 × 10^5 CFU/mL of bacteria were inoculated in LB medium containing AMPs or antibiotic at final concentrations ranging from 512 to 1 μg/mL (from serial twofold dilutions). After incubation for 24 h at 37 °C, the lowest concentration showing no visible growth was used as the MIC value. In addition, 10 µL was drawn from each well with no visible turbidity onto LB agar plates and incubated for 24 h at 37 °C. The lowest concentration showing no visible growth on agar subculture was used as the MBC value. All experiments were performed in triplicate.

MDRAB strain MO91 = type: cell-based, Acinetobacter baumannii; details: 24 h
Method: as §1

[2] = system: Acinetobacter baumannii 17,978; type: cell-based; details: 17,978, 24 h;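 also: CLSI broth microdilution in 96-well polypropylene plates, MBC taken as lowest concentration giving no growth when clear wells were subcultured on LB agar for 24 h at 37 °C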
Method: as §2

Molecule: CC[C@H](C)[C@H](NC(=O)[C@H](CO)NC(=O)[C@H](Cc1ccccc1)NC(=O)[C@H](CC(C)C)NC(=O)CNC(=O)CNC(=O)[C@@H](NC(=O)[C@@H](NC(=O)[C@H](Cc1c[nH]cn1)NC(=O)[C@H](Cc1c[nH]cn1)NC(=O)[C@@H](NC(=O)[C@@H](N)Cc1ccccc1)[C@@H](C)CC)[C@@H](C)CC)[C@@H](C)CC)C(=O)NCC(=O)N[C@@H](CCCCN)C(=O)N[C@H](C(=O)N[C@H](C(=O)N[C@@H](Cc1c[nH]cn1)C(=O)N[C@@H](CCCNC(=N)N)C(=O)N[C@@H](CC(C)C)C(=O)N[C@H](C(=O)N[C@@H](CCCNC(=N)N)C(=O)N[C@@H](CCCNC(=N)N)C(=O)N[C@@H](CCCNC(=N)N)C(=O)N[C@@H](CCCNC(=N)N)C(=O)N[C@@H](CCCNC(=N)N)C(=O)O)[C@@H](C)CC)[C@@H](C)CC)[C@@H](C)CC [A12I/A15I]
- MBC [1]: 128 µg/mL (≈ 41.8 µM)
- MIC [1]: 32 µg/mL (≈ 10.4 µM)
- MBC (MDRAB strain BF50): 128 µg/mL (≈ 41.8 µM)
- MIC (MDRAB strain BF50): 64 µg/mL (≈ 20.9 µM)
- MBC (MDRAB strain MO91): 128 µg/mL (≈ 41.8 µM)
- MIC (MDRAB strain MO91): 32 µg/mL (≈ 10.4 µM)
- MBC [2]: 64 µg/mL (≈ 20.9 µM)
- MIC [2]: 64 µg/mL (≈ 20.9 µM)

Molecule: AAHHIIGGLFSAGKAIHRLIRRRRR [F1A/I2A]
- MBC [1]: 16 µg/mL
- MIC [1]: 16 µg/mL
- MBC (MDRAB strain BF50): 32 µg/mL
- MIC (MDRAB strain BF50): 16 µg/mL
- MBC (MDRAB strain MO91): 32 µg/mL
- MIC (MDRAB strain MO91): 32 µg/mL
- MBC [2]: 32 µg/mL
- MIC [2]: 32 µg/mL

Molecule: FIAAIIGGLFSAGKAIHRLIRRRRR [H3A/H4A]
- MBC [1]: 64 µg/mL
- MIC [1]: 64 µg/mL
- MBC (MDRAB strain BF50): 128 µg/mL
- MIC (MDRAB strain BF50): 64 µg/mL
- MBC (MDRAB strain MO91): 256 µg/mL
- MIC (MDRAB strain MO91): 64 µg/mL
- MBC [2]: 128 µg/mL
- MIC [2]: 64 µg/mL

Molecule: FIHHAAGGLFSAGKAIHRLIRRRRR [I5A/I6A]
- MBC [1]: 64 µg/mL
- MIC [1]: 64 µg/mL
- MBC (MDRAB strain BF50): 64 µg/mL
- MIC (MDRAB strain BF50): 32 µg/mL
- MBC (MDRAB strain MO91): 128 µg/mL
- MIC (MDRAB strain MO91): 64 µg/mL
- MBC [2]: 32 µg/mL
- MIC [2]: 32 µg/mL

Molecule: FIHHIIGGAASAGKAIHRLIRRRRR [L9A/F10A]
- MBC [1]: 128 µg/mL
- MIC [1]: 64 µg/mL
- MBC (MDRAB strain BF50): 64 µg/mL
- MIC (MDRAB strain BF50): 64 µg/mL
- MBC (MDRAB strain MO91): 128 µg/mL
- MIC (MDRAB strain MO91): 128 µg/mL
- MBC [2]: 64 µg/mL
- MIC [2]: 64 µg/mL

Molecule: FIHHIIGGLFSAGKAAHRLIRRRRR [Peptide I16A]
- MBC [1]: 32 µg/mL
- MIC [1]: 32 µg/mL
- MBC (MDRAB strain BF50): 16 µg/mL
- MIC (MDRAB strain BF50): 16 µg/mL
- MBC (MDRAB strain MO91): 32 µg/mL
- MIC (MDRAB strain MO91): 16 µg/mL
- MBC [2]: 32 µg/mL
- MIC [2]: 16 µg/mL

Molecule: FIHHIIGGLFSAGKAEHRLIRRRRR [Peptide I16E]
- MBC [1]: > 256 µg/mL
- MIC [1]: > 256 µg/mL
- MBC (MDRAB strain BF50): > 256 µg/mL
- MIC (MDRAB strain BF50): > 256 µg/mL
- MBC (MDRAB strain MO91): > 256 µg/mL
- MIC (MDRAB strain MO91): > 256 µg/mL
- MBC [2]: > 256 µg/mL
- MIC [2]: > 256 µg/mL

Molecule: FIHHIIGGLFSAGKAIHRHHRRRRR [L19H/I20H]
- MBC [1]: 64 µg/mL
- MIC [1]: 64 µg/mL
- MBC (MDRAB strain BF50): 32 µg/mL
- MIC (MDRAB strain BF50): 32 µg/mL
- MBC (MDRAB strain MO91): 32 µg/mL
- MIC (MDRAB strain MO91): 32 µg/mL
- MBC [2]: 32 µg/mL
- MIC [2]: 32 µg/mL

Molecule: FIHHIIGGLFSAGKAIHSLIHRRRR [R18S/R21H]
- MBC [1]: 32 µg/mL
- MIC [1]: 32 µg/mL
- MBC (MDRAB strain BF50): 64 µg/mL
- MIC (MDRAB strain BF50): 16 µg/mL
- MBC (MDRAB strain MO91): 32 µg/mL
- MIC (MDRAB strain MO91): 32 µg/mL
- MBC [2]: 32 µg/mL
- MIC [2]: 16 µg/mL

Molecule: FIHHIIGGLFSAGKARHRLIRRRRR [Peptide I16R]
- MBC [1]: 64 µg/mL
- MIC [1]: 64 µg/mL
- MBC (MDRAB strain BF50): 128 µg/mL
- MIC (MDRAB strain BF50): 64 µg/mL
- MBC (MDRAB strain MO91): 256 µg/mL
- MIC (MDRAB strain MO91): 64 µg/mL
- MBC [2]: 128 µg/mL
- MIC [2]: 128 µg/mL

Molecule: FIHHIIGGLFSVGKHIHRLIRRRRR [A12V/A15H]
- MBC [1]: 32 µg/mL
- MIC [1]: 16 µg/mL
- MBC (MDRAB strain BF50): 128 µg/mL
- MIC (MDRAB strain BF50): 16 µg/mL
- MBC (MDRAB strain MO91): 256 µg/mL
- MIC (MDRAB strain MO91): 16 µg/mL
- MBC [2]: 32 µg/mL
- MIC [2]: 16 µg/mL

From article PMC8016998, “Identification of potential therapeutic antimicrobial peptides against Acinetobacter baumannii in a mouse model of pneumonia” (Scientific Reports, 2021)
